Measurements: ChEMBL document CHEMBL5608185, “Design, synthesis and evaluation of carbamate-bridged amino acid prodrugs of cycloicaritin with improved antitumor activity, aqueous solubility and phase II metabolic stability” (Eur J Med Chem, 2024)
≈ marks a conversion by molar mass, not a printed value.

Key:
[1] = Aqueous solubility of the compound incubated for 72 hrs by shake-flask method; format: physicochemical; conditions: buffer
[2] = Chemical stability of the compound assessed as half life at pH 4.5 by HPLC analysis; format: physicochemical; conditions: buffer
[3] = Stability in Sprague-Dawley rat liver homogenates assessed as half life at pH 7.4 by HPLC analysis; format: ADME, tissue-based
[4] = Drug uptake in human Caco-2 cells at 5 uM at pH 7.4 incubated for 10 mins by HPLC-MS/MS analysis; format: ADME, cell-based; conditions: caco-2, pH 7.4, 10 min
[5] = Stability in rat liver microsomes assessed as parent compound remaining at 10 uM measured after 70 mins by HPLC-UV analysis; format: ADME, Microsome; conditions: read-out: Stability
[6] = Octanol/water partition coefficient, logP of the compound incubated for 72 hrs by HPLC-MS/MS analysis; format: physicochemical
[7] = Selectivity ratio of cytotoxicity against human HepG2 cells to cytotoxicity against mouse 4T1 cells
[8] = Chemical stability of the compound in simulated intestinal fluid assessed as half life by HPLC analysis; format: ADME, physicochemical
4T1 [9] = experiment: Cytotoxicity against mouse 4T1 cells assessed as reduction in cell viability incubated for 72 hrs by MTT assay; format: functional, cell-based
[10] = Drug uptake in human Caco-2 cells at 5 uM incubated for 10 mins in presence of Estrone-3-sulfate by HPLC-MS/MS analysis; format: ADME, cell-based; conditions: caco-2, 10 min
[11] = Drug uptake in human Caco-2 cells at 5 uM incubated for 10 mins in presence of glycyl-sarcosine by HPLC-MS/MS analysis; format: ADME, cell-based; conditions: caco-2, 10 min
[12] = Stability at phase II in rat liver microsomes assessed as half life at 10 uM measured every 10 mins for 70 mins by HPLC-UV analysis; format: ADME, Microsome
[13] = Cytotoxicity against mouse 3T3 cells assessed as reduction in cell viability incubated for 72 hrs by MTT assay; format: toxicity, cell-based; conditions: NIH3T3 cells
[14] = Drug uptake in human Caco-2 cells at 5 uM at pH 6.0 incubated for 10 mins by HPLC-MS/MS analysis; format: ADME, cell-based; conditions: caco-2, pH 6, 10 min
[15] = Drug metabolism in rat liver microsomes at 10 uM measured upto 70 mins by HPLC-UV analysis; format: ADME, Microsome; conditions: 1.167 h
[16] = Chemical stability of the compound in simulated gastric fluid assessed as half life by HPLC analysis; format: ADME, physicochemical
[17] = Stability in Sprague-Dawley rat intestine homogenates assessed as half life at pH 7.4 by HPLC analysis; format: ADME, tissue-based
[18] = Chemical stability of the compound assessed as half life at pH 7.4 by HPLC analysis; format: physicochemical; conditions: buffer
[19] = Chemical stability of the compound assessed as half life at pH 6.8 by HPLC analysis; format: physicochemical; conditions: buffer
HepG2 = experiment: Cytotoxicity against human HepG2 cells assessed as reduction in cell viability incubated for 72 hrs by MTT assay; format: functional, cell-based
[20] = Drug uptake in human Caco-2 cells at 5 uM incubated for 10 mins in presence of fexofenadine by HPLC-MS/MS analysis; format: ADME, cell-based; conditions: caco-2, 10 min
[21] = Stability in Sprague-Dawley rat blood homogenates assessed as half life at pH 7.4 by HPLC analysis; format: ADME, tissue-based
[22] = Drug uptake in human Caco-2 cells over 0.5 to 50 uM incubated for 10 mins by HPLC-MS/MS analysis; format: ADME, cell-based; conditions: caco-2, 10 min, dose 0.5-50 µM
[23] = Chemical stability of the compound assessed as half life at pH 1.2 by HPLC analysis; format: physicochemical; conditions: buffer
4T1 [24] = experiment: Antitumor activity against mouse 4T1 cells xenografted in BALB/c mouse model assessed as reduction in tumor growth administered once daily via oral gavage and measured every two days for 16 days; format: functional, cell-based; conditions: dose 35-150 mg/kg, time 16.0 day
[25] = Cmax in Sprague-Dawley rat at 20 mg/kg, po measured upto 12 hrs by HPLC-MS/MS analysis; format: ADME, organism-based; conditions: in vivo
[26] = Toxicity in BALB/c mouse assessed as effect on BUN level at 35 to 150 mg/kg, po measured after 16 days; format: organism-based; conditions: in vivo, 384 h, dose 35-150 mg/kg, time 16 day
[27] = AUC (0 to t) in Sprague-Dawley rat at 20 mg/kg, po measured upto 12 hrs by HPLC-MS/MS analysis; format: ADME, organism-based; conditions: in vivo
[28] = Half life in Sprague-Dawley rat at 20 mg/kg, po measured upto 12 hrs by HPLC-MS/MS analysis; format: ADME, organism-based; conditions: in vivo
[29] = Toxicity in BALB/c mouse assessed as effect on ALT level at 35 to 150 mg/kg, po measured after 16 days; format: organism-based; conditions: in vivo, 384 h, dose 35-150 mg/kg, time 16 day
[30] = AUC (0 to t) in male Sprague-Dawley rat at 20 mg/kg, po measured up to 12 hrs in presence of glycyl-sarcosine by HPLC-MS/MS analysis; format: ADME, organism-based; conditions: in vivo, with glycyl-sarcosine (dose not stated)
[31] = Cmax in male Sprague-Dawley rat at 20 mg/kg, po measured up to 12 hrs in presence of glycyl-sarcosine by HPLC-MS/MS analysis; format: ADME, organism-based; conditions: in vivo, with glycyl-sarcosine (dose not stated)
[32] = Tmax in Sprague-Dawley rat at 20 mg/kg, po measured upto 12 hrs by HPLC-MS/MS analysis; format: ADME, organism-based; conditions: in vivo
[33] = Cmax in male Sprague-Dawley rat at 20 mg/kg, po measured up to 12 hrs in presence of fexofenadine by HPLC-MS/MS analysis; format: ADME, organism-based; conditions: in vivo, with fexofenadine (dose not stated)
[34] = Drug uptake in human Caco-2 cells over 1 to 100 uM incubated for 10 mins by HPLC-MS/MS analysis; format: ADME, cell-based; conditions: caco-2, 10 min, dose 1-100 µM
[35] = Toxicity in BALB/c mouse assessed as effect on AST level at 35 to 150 mg/kg, po measured after 16 days; format: organism-based; conditions: in vivo, 384 h, dose 35-150 mg/kg, time 16 day
[36] = Prodrug conversion in Sprague-Dawley rat assessed as Cmax of cycloicaritin metabolite at 20 mg/kg, po measured up to 12 hrs by HPLC-MS/MS analysis; format: ADME, organism-based; conditions: in vivo
[37] = Prodrug conversion in Sprague-Dawley rat assessed as AUC (0 to t) of cycloicaritin metabolite at 20 mg/kg, po measured up to 12 hrs by HPLC-MS/MS analysis; format: ADME, organism-based; conditions: in vivo
[38] = Prodrug conversion in Sprague-Dawley rat assessed as Tmax of cycloicaritin metabolite at 20 mg/kg, po measured up to 12 hrs by HPLC-MS/MS analysis; format: ADME, organism-based; conditions: in vivo
[39] = Toxicity in BALB/c mouse assessed as effect on body weight at 35 to 150 mg/kg, po measured after 16 days; format: organism-based; conditions: in vivo, 384 h, dose 35-150 mg/kg, time 16 day
[40] = Toxicity in BALB/c mouse assessed as effect on CREA level at 35 to 150 mg/kg, po measured after 16 days; format: organism-based; conditions: in vivo, 384 h, dose 35-150 mg/kg, time 16 day
[41] = AUC (0 to t) in male Sprague-Dawley rat at 20 mg/kg, po measured up to 12 hrs in presence of fexofenadine by HPLC-MS/MS analysis; format: ADME, organism-based; conditions: in vivo, with fexofenadine (dose not stated)
[42] = Prodrug conversion in Sprague-Dawley rat assessed as half life of cycloicaritin metabolite at 20 mg/kg, po measured up to 12 hrs by HPLC-MS/MS analysis; format: ADME, organism-based; conditions: in vivo

Structure (SMILES)	solubility thermodynamic at 72 h [1]	half-life [2]	half-life [3]	Drug uptake [4]	remaining at 1.167 h, 10 µM [5]	logP at 72 h [6]	half-life [8]	Activity (4T1 [9])	Drug uptake [10]	Drug uptake [11]	half-life at 10 µM [12]	IC50 at 72 h [13]	Drug uptake [14]	half-life [16]	half-life [17]	half-life [18]	half-life [19]	Drug uptake [20]	half-life [21]	half-life [23]	other results
COc1ccc(-c2oc3c4c(cc(O)c3c(=O)c2OC(=O)N[C@@H](CCC(=O)O)C(=O)O)OC(C)(C)CC4)cc1	1.1 µM (≈ 0.596 µg/mL)	–	–	–	–	–	–	–	–	–	–	–	–	–	–	–	–	–	–	–	–
COc1ccc(-c2oc3c4c(cc(O)c3c(=O)c2O)OC(C)(C)CC4)cc1	0.81 µM (≈ 0.298 µg/mL)	> 12 h	> 12 h	Active	27%	3.8	> 12 h	Dose-Dependent Effect	Active	Active	0.62 h	> 50 µM	Active	> 12 h	> 12 h	> 12 h	> 12 h	Active	> 12 h	> 12 h	Selectivity ratio [7]: 1.8; Drug metabolism [15]: Metabolite_Detected; Activity (HepG2): Dose-Dependent Effect; Drug uptake [22]: Active
COc1ccc(-c2oc3c4c(cc(O)c3c(=O)c2OC(=O)N[C@@H](CC(C)C)C(=O)O)OC(C)(C)CC4)cc1	13 µM (≈ 6.84 µg/mL)	> 12 h	8.6 h	Not Active	76%	3.42	> 12 h	Dose-Dependent Effect	Not Active	Active	> 1.16 h	> 100 µM	Active	> 12 h	8.67 h	> 12 h	> 12 h	Not Active	0.5 h	> 12 h	Activity (4T1 [24]): Dose-Dependent Effect; Cmax [25]: 156 nM; Activity [26]: Non-Toxic; AUC(0-t) at 12 h [27]: 0.463 µM·h; half-life [28]: 5.34 h; Activity [29]: Non-Toxic; AUC(0-t) at 12 h [30]: 0.812 µM·h; Cmax [31]: 204 nM; Tmax [32]: 1 h; Cmax [33]: 47.4 nM; Drug uptake [34]: Not Active; Activity [35]: Non-Toxic; Cmax [36]: 66.6 nM; AUCt [37]: 0.1587 µM·h; Activity (HepG2): Dose-Dependent Effect; Tmax [38]: 0.9 h; Activity [39]: Non-Toxic; Activity [40]: Non-Toxic; AUC(0-t) at 12 h [41]: 0.303 µM·h; t1/2 [42]: 6.96 h
COc1ccc(-c2oc3c4c(cc(O)c3c(=O)c2OC(=O)N[C@H](C(=O)O)C(C)C)OC(C)(C)CC4)cc1	5.69 µM (≈ 2.91 µg/mL)	> 12 h	7.99 h	Not Active	76%	2.75	> 12 h	–	Not Active	–	> 1.16 h	–	–	> 12 h	7.22 h	8.17 h	> 12 h	Not Active	0.47 h	> 12 h	Drug uptake [34]: Not Active
